These results are taken from US8293724B2, “Therapeutic applications of fatty acid amide hydrolase inhibitors” (The United States of America, as represented by the …, priority 2007, dated 2012).

In one experiment the target is CB2 cannabinoid receptor (Homo sapiens, UniProt P34972). In words: Affinity for the CB2 cannabinoid receptor. In kind it is binding.
For experiment [1], the target named is T1, FAAH (Mus musculus, UniProt O08914).
T1 construct: the brain and liver removed, and tissue homogenates prepared as described above; from tissue; host or cells: mouse brain and liver homogenates after in vivo dosing
T1 sequence (O08914 1-579): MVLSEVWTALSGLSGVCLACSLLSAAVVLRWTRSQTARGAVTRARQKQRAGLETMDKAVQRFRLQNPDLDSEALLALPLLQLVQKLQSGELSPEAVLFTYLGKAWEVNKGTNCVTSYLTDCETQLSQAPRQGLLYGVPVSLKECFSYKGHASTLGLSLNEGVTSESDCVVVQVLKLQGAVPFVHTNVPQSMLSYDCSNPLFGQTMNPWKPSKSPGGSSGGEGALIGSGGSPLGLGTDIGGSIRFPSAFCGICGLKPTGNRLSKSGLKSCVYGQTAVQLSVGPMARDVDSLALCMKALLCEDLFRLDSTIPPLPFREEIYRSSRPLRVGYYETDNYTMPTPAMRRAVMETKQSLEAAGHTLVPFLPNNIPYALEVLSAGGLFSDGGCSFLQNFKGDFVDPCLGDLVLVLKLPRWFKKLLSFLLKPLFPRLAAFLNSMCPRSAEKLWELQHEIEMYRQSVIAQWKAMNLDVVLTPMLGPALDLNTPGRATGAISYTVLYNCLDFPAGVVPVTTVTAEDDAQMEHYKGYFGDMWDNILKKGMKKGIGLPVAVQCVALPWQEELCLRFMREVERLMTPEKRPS
Nature of the experiment: FAAH activity in brain and liver homogenates following in vivo administration. Also noted: species or system mice. The protocol:
For the experiments illustrated in FIG. 3, FAAH activity was assessed through a different method not requiring TLC separation, as described by Jonsson et al: Br. J. Pharmacol. 133:1263-1275, 1997. […] The mice were sacrificed one hour later, the brain and liver removed, and tissue homogenates prepared as described above. [^3H]Anandamide labeled on the ethanolamide moiety was added to the homogenate and incubated at 37° C. for 10 min. The homogenate was then extracted twice with chloroform:methanol 1:1 and the radioactivity in the aqueous phase (containing the released ethanolamide) was counted.

Experiment [2] addresses T2, FAAH (Rattus norvegicus, UniProt P97612).
T2 construct: from tissue; host or cells: liver of SHR and WKY rats treated in vivo
T2 sequence (P97612 1-579): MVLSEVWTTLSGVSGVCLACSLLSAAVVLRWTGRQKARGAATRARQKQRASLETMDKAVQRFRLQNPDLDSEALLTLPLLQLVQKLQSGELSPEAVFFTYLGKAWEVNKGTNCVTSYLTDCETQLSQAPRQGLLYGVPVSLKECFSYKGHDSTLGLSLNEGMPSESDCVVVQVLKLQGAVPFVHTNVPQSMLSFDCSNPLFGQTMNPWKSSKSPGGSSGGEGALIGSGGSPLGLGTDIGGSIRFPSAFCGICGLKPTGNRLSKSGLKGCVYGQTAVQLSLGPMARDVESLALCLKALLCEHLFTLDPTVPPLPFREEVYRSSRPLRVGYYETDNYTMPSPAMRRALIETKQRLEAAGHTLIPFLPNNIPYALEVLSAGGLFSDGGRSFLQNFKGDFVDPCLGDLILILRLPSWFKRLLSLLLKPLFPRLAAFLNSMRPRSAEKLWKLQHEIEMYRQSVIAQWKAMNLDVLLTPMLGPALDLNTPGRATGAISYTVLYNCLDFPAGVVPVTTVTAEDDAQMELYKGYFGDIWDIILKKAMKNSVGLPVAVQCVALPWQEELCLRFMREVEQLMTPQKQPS
Nature of the experiment: FAAH inhibition in vitro, crude rat brain homogenate with [3H]anandamide. In kind it is biochemical. As for the experimental part:
This example describes a general method for assaying FAAH inhibition by the disclosed compounds and determining their IC50 values in vitro (Deutsch, D. G. and S. A. Chin, Biochem. Pharmacol. 46:791-796 (1993)). The indicated amount of each compound was preincubated in a buffer consisting of 300 μg of crude rat brain homogenate protein, 500 μg/ml fatty acid-free bovine serum albumin, in phosphate-buffered saline in a final volume of 1.0 ml, for 10 minutes at 37° C. Crude rat brain homogenate was obtained by decapitating female adult Sprague-Dawley rats, dissecting the desired tissue and homogenizing in five volumes of ice-cold TE (10 mM Tris-HCl, 1 mM EDTA, pH 7.6). Substrate ([…] anandamide+0.2 µCi of 221 Ci/mmol [^3H]anandamide ([arachidonyl-5,6,8,9,11,12,14,15-^3H]ethanolamide)) was then added and the samples incubated for 10 minutes. The reaction was quenched by the addition of chloroform:methanol (1:1) and enzyme activity was analyzed by TLC.

Usually pKi stands for −log10 of the Ki, conventionally taken in molar units.

pKi: −log10 of the molar value.

Chain of CB2 cannabinoid receptor (P34972 whole entry): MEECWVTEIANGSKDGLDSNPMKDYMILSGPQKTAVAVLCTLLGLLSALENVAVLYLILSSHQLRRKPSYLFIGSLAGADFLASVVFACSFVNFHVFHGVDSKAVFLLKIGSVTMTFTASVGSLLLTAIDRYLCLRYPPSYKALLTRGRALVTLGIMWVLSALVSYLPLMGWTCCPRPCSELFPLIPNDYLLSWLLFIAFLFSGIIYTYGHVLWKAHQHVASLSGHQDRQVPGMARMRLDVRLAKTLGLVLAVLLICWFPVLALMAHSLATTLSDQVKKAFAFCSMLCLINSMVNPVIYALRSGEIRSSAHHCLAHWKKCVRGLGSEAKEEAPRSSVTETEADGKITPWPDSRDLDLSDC

Take `O=S(=O)(F)CCCCCc1ccc(O)cc1` [AM3506]: the pKi was 5.24 at CB2 cannabinoid receptor and 7.51 on FAAH [2]. Besides, the “inhibition of FAAH in liver” value against FAAH [1] (AM3506 1 mg/kg) was “devoid of inhibitory potency in liver”. On FAAH [1] (AM3506 1 mg/kg versus URB597 10 mg/kg), the “dose equivalence in inhibition of FAAH in brain” value was “equieffective with 10 mg/kg URB597”.
